{"source": "patent US20160280688A1", "about": "“SUBSTITUTED PHENYLALANINE DERIVATIVES” (BAYER PHARMA AKTIENGESELLSCHAFT, priority 2013, published 2016)", "type_in_all_cases": "biochemical", "key": {"human factor XIa": {"biological_target": "T1, human factor XIa (Homo sapiens, UniProt P03951)", "T1 construct": "purchased Kordia", "T1 sequence (P03951 388-625 limits assumed)": "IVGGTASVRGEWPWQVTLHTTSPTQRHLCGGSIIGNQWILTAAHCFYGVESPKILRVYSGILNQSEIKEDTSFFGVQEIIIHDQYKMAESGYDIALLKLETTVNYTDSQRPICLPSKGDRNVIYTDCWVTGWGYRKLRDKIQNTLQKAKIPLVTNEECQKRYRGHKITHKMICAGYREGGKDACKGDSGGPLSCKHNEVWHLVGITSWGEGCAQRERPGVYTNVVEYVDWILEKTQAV", "T1 sequence (P03951 19-387 partner limits assumed)": "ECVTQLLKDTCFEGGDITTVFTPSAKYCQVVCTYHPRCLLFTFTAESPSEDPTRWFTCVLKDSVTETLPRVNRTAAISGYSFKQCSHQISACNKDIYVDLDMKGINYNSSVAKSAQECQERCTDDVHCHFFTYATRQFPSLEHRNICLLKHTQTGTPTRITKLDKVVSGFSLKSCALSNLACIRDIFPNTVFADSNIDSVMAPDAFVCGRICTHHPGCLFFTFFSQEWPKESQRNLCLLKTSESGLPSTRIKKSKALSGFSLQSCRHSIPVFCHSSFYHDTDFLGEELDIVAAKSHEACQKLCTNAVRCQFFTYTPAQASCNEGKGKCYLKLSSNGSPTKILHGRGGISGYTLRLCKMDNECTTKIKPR", "assay": "Measurement of FXIa inhibition (fluorogenic peptide substrate Boc-Glu(OBzl)-Ala-Arg-AMC)", "details": "factor XIa from Kordia, 15 min preincubation, 30 min at 22° C., fluorescence", "description": "To determine the factor XIa inhibition of the substances according to the invention, a biochemical test system is used which utilizes the reaction of a peptidic factor XIa substrate to determine the enzymatic activity of human factor XIa. Here, factor XIa cleaves from the peptic factor XIa substrate the C-terminal aminomethylcoumarin (AMC), the fluorescence of which is measured. The determinations are carried out in microtitre plates.\n(§1) Test substances are dissolved in dimethyl sulphoxide and serially diluted in dimethyl sulphoxide (3000 μM to 0.0078 μM; resulting final concentrations in the test: 50 μM to 0.00013 μM). In each case 1 μl of the diluted substance solutions are placed into the wells of white microtitre plates from Greiner (384 wells). Subsequently, the following are added successively: 20 μl of assay buffer (50 mmol/l Tris buffer pH 7.4; 100 mmol/l sodium chloride; 5 mmol/l calcium chloride; 0.1% bovine serum albumin) and 20 μl of factor XIa from Kordia (0.45 nM in assay buffer). After 15 min of incubation, the enzyme reaction is started by addition of 20 μl of the factor XIa substrate Boc-Glu(OBzl)-Ala-Arg-AMC dissolved in assay buffer (10 μM in assay buffer) from Bachem, the mixture is incubated at room temperature (22° C.) for 30 min and fluorescence is then measured (excitation: 360 nm, emission: 460 nm). The measured emissions of the test batches with test substance are compared to those of control batches without test substance (only dimethyl sulphoxide instead of test substance in dimethyl sulphoxide), and IC50 values are calculated from the concentration/activity relationships."}, "human and animal plasma": {"tested_on": "human and animal plasma", "assay": "Determination of the anticoagulatory activity: activated partial thromboplastin time (aPTT) in plasma", "details": "in vitro in plasma, C.K. Prest kit, 3 min at 37° C.", "description": "The anticoagulatory activity of the test substances is determined in vitro in human and animal plasma (for example mouse, rat, rabbit, pig and dog plasma). To this end, blood is drawn off in a mixing ratio of sodium citrate/blood of 1:9 using a 0.11 molar sodium citrate solution as receiver. Immediately after the blood has been drawn off, it is mixed thoroughly and centrifuged at about 4000 g for 15 minutes. The supernatant is pipetted off.\nThe activated partial thromboplastin time (aPTT) is determined in the presence of varying concentrations of test substance or the corresponding solvent using a commercial test kit (C.K. Prest from Diagnostica Stago). The test compounds are incubated with the plasma and the PTT reagent (cephalin, kaolin) at 37° C. for 3 minutes. Coagulation is then started by addition of a 25 mM aqueous calcium chloride solution, and the time when coagulation occurs is determined. The concentration of test substance which brings about a 1.5-fold extension of the aPTT is determined Activity data from this test are listed in Table B below: […]"}, "human plasmin": {"biological_target": "T2, human plasmin (Homo sapiens, UniProt P00747)", "T2 construct": "purchased Kordia", "T2 sequence (P00747 581-810 limits assumed)": "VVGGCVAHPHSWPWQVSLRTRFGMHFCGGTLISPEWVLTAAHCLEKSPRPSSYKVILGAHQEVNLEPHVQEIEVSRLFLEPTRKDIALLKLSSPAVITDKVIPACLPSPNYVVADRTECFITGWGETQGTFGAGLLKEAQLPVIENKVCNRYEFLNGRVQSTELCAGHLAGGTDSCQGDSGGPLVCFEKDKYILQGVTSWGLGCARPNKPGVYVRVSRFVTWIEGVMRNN", "T2 sequence (P00747 97-580 partner limits assumed)": "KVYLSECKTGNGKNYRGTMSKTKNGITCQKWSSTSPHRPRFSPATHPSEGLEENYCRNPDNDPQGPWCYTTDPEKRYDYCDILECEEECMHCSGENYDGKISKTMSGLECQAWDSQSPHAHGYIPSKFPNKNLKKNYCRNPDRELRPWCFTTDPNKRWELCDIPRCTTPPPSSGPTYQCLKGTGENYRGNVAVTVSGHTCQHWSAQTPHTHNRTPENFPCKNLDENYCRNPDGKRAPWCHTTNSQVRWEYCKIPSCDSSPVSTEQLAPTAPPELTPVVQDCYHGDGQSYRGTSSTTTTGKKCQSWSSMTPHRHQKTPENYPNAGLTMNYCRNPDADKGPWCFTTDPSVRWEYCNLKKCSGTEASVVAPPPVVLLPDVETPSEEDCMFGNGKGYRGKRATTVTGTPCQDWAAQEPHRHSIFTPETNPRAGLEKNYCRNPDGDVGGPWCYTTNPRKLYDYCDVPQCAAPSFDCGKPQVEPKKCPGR", "assay": "Measurement of plasmin inhibition (fluorogenic peptide substrate MeOSuc-Ala-Phe-Lys-AMC)", "details": "plasmin from Kordia, 15 min preincubation, 30 min at 22° C., fluorescence", "description": "The plasmin inhibition of the inventive substances is determined using a biochemical test system which utilizes the reaction of a peptidic plasmin substrate to determine the enzymatic activity of human plasmin. Here, plasmin cleaves from the peptic plasmin substrate the C-terminal aminomethylcoumarin (AMC), the fluorescence of which is measured. The determinations are carried out in microtitre plates.\nas §1, with “plasmin” for “factor XIa”, “(0.3 μg/ml” for “(0.45 nM”, “MeOSuc-Ala-Phe-Lys-AMC” for “Boc-Glu(OBzl)-Ala-Arg-AMC”, “(150” for “(10”, “ICso” for “IC50”"}}, "note": "Counter-ions that a name gives are not always drawn.", "data": [{"smiles": "Cc1cc2oc(C3CC3)nc2cc1-c1ccc(C[C@H](NC(=O)[C@H]2CC[C@H](CN)CC2)C(=O)Nc2ccc(-c3nnn[nH]3)cc2)cc1.Cl", "note": "(relative stereo) [Example 26, N-alpha-{[trans-4-(Aminomethyl)cyclohexyl]carbonyl}-4-(2-cyclopropyl-6-methyl-1,3-benzoxazol-5-yl)-N-[4-(1H-tetrazol-5-yl)phenyl]-L-phenylalaninamide hydrochloride]", "values": [{"measurement": "IC50", "setting": "human factor XIa", "value": 1.4, "unit": "nM"}, {"measurement": "aPTT (concentration of test substance which brings about a 1.5-fold extension of the aPTT)", "setting": "human and animal plasma", "value": 0.18, "unit": "µmol/L"}, {"measurement": "IC50", "setting": "human plasmin", "value": 2.7, "unit": "nM"}]}, {"smiles": "Cc1cc2nc[nH]c2cc1-c1ccc(C[C@H](NC(=O)C2CCC(CN)CC2)C(=O)Nc2ccc(-c3nn[nH]n3)cc2)cc1", "note": "(stereo partly drawn) [Example 1, N-alpha-{[trans-4-(Aminomethyl)cyclohexyl]carbonyl}-4-(5-methyl-1H-benzimidazol-6-yl)-N-[4-(2H-tetrazol-5-yl)phenyl]-L-phenylalaninamide hydrochloride]", "values": [{"measurement": "IC50", "setting": "human factor XIa", "value": 0.9, "unit": "nM"}, {"measurement": "aPTT (concentration of test substance which brings about a 1.5-fold extension of the aPTT)", "setting": "human and animal plasma", "value": 0.07, "unit": "µmol/L"}, {"measurement": "IC50", "setting": "human plasmin", "value": 22, "unit": "nM"}]}, {"smiles": "Cc1cc2[nH]c(C3CC3)nc2cc1-c1ccc(C[C@H](NC(=O)[C@H]2CC[C@H](CN)CC2)C(=O)Nc2cc(Cl)c3[nH]c(=O)[nH]c3c2)cc1", "note": "[Example 20, N-alpha-{[trans-4-(Aminomethyl)cyclohexyl]carbonyl}-N-(7-chloro-2-oxo-2,3-dihydro-1H-benzimidazol-5-yl)-4-(2-cyclopropyl-6-methyl-1H-benzimidazol-5-yl)-L-phenylalaninamide]", "values": [{"measurement": "IC50", "setting": "human factor XIa", "value": 0.9, "unit": "nM"}, {"measurement": "aPTT (concentration of test substance which brings about a 1.5-fold extension of the aPTT)", "setting": "human and animal plasma", "value": 0.26, "unit": "µmol/L"}, {"measurement": "IC50", "setting": "human plasmin", "value": 0.4, "unit": "nM"}]}, {"smiles": "Cc1nc2[nH]c(C3CC3)nc2cc1-c1ccc(C[C@H](NC(=O)[C@H]2CC[C@H](CN)CC2)C(=O)Nc2ccc3[nH]c(=O)[nH]c3c2)cc1", "note": "[Example 21, N-alpha-{[trans-4-(Aminomethyl)cyclohexyl]carbonyl}-4-(2-cyclopropyl-5-methyl-1H-imidazo[4,5-b]pyridin-6-yl)-N-(2-oxo-2,3-dihydro-1H-benzimidazol-5-yl)-L-phenylalaninamide]", "values": [{"measurement": "IC50", "setting": "human factor XIa", "value": 0.7, "unit": "nM"}, {"measurement": "aPTT (concentration of test substance which brings about a 1.5-fold extension of the aPTT)", "setting": "human and animal plasma", "value": 0.3, "unit": "µmol/L"}, {"measurement": "IC50", "setting": "human plasmin", "value": 0.4, "unit": "nM"}]}, {"smiles": "Cc1cc2[nH]c(C3CC3)nc2cc1-c1ccc(C[C@H](NC(=O)[C@H]2CC[C@H](CN)CC2)C(=O)Nc2cc(F)c3c(=O)[nH][nH]c3c2)cc1", "note": "[Example 22, N-alpha-{[trans-4-(Aminomethyl)cyclohexyl]carbonyl}-4-(2-cyclopropyl-6-methyl-1H-benzimidazol-5-yl)-N-(4-fluoro-3-oxo-2,3-dihydro-1H-indazol-6-yl)-L-phenylalaninamide hydrochloride]", "values": [{"measurement": "IC50", "setting": "human factor XIa", "value": 0.5, "unit": "nM"}, {"measurement": "aPTT (concentration of test substance which brings about a 1.5-fold extension of the aPTT)", "setting": "human and animal plasma", "value": 0.18, "unit": "µmol/L"}, {"measurement": "IC50", "setting": "human plasmin", "value": 0.6, "unit": "nM"}]}, {"smiles": "NC[C@H]1CC[C@H](C(=O)N[C@@H](Cc2ccc(-c3cc4nc(C5CC5)[nH]c4cc3Cl)cc2)C(=O)Nc2ccc3[nH]c(=O)[nH]c3c2)CC1", "note": "[Example 23, N-alpha-{[trans-4-(Aminomethyl)cyclohexyl]carbonyl}-4-(6-chloro-2-cyclopropyl-1H-benzimidazol-5-yl)-N-(2-oxo-2,3-dihydro-1H-benzimidazol-5-yl)-L-phenylalaninamide hydrochloride]", "values": [{"measurement": "IC50", "setting": "human factor XIa", "value": 2.3, "unit": "nM"}, {"measurement": "aPTT (concentration of test substance which brings about a 1.5-fold extension of the aPTT)", "setting": "human and animal plasma", "value": 0.27, "unit": "µmol/L"}, {"measurement": "IC50", "setting": "human plasmin", "value": 0.95, "unit": "nM"}]}, {"smiles": "Cc1cc2[nH]c(C(C)C)nc2cc1-c1ccc(C[C@H](NC(=O)[C@H]2CC[C@H](CN)CC2)C(=O)Nc2ccc3nc(C(F)(F)C(F)(F)F)[nH]c3c2)cc1", "note": "[Example 25, N-alpha-{[trans-4-(Aminomethyl)cyclohexyl]carbonyl}-4-(2-isopropyl-6-methyl-1H-benzimidazol-5-yl)-N-[2-(pentafluoroethyl)-1H-benzimidazol-6-yl]-L-phenylalaninamide hydrochloride]", "values": [{"measurement": "IC50", "setting": "human factor XIa", "value": 13, "unit": "nM"}, {"measurement": "aPTT (concentration of test substance which brings about a 1.5-fold extension of the aPTT)", "setting": "human and animal plasma", "value": 0.96, "unit": "µmol/L"}, {"measurement": "IC50", "setting": "human plasmin", "value": 1.7, "unit": "nM"}]}, {"smiles": "Cc1c(-c2ccc(C[C@H](NC(=O)[C@H]3CC[C@H](CN)CC3)C(=O)Nc3ccc4[nH]c(=O)[nH]c4c3)cc2)cc2nc(C3CCC3)[nH]c2c1F", "note": "[Example 27, N-alpha-{[trans-4-(Aminomethyl)cyclohexyl]carbonyl}-4-(2-cyclobutyl-7-fluoro-6-methyl-1H-benzimidazol-5-yl)-N-(2-oxo-2,3-dihydro-1H-benzimidazol-5-yl)-L-phenylalaninamide]", "values": [{"measurement": "IC50", "setting": "human factor XIa", "value": 0.9, "unit": "nM"}, {"measurement": "aPTT (concentration of test substance which brings about a 1.5-fold extension of the aPTT)", "setting": "human and animal plasma", "value": 0.16, "unit": "µmol/L"}, {"measurement": "IC50", "setting": "human plasmin", "value": 0.45, "unit": "nM"}]}, {"smiles": "Cc1cc2nc[nH]c2cc1-c1ccc(C[C@H](NC(=O)[C@H]2CC[C@H](CN)CC2)C(=O)Nc2ccc3c(=O)[nH][nH]c3c2)cc1", "note": "[Example 30, N-alpha-{[trans-4-(Aminomethyl)cyclohexyl]carbonyl}-4-(5-methyl-1H-benzimidazol-6-yl)-N-(3-oxo-2,3-dihydro-1H-indazol-6-yl)-L-phenylalaninamide hydrochloride]", "values": [{"measurement": "IC50", "setting": "human factor XIa", "value": 1.7, "unit": "nM"}, {"measurement": "aPTT (concentration of test substance which brings about a 1.5-fold extension of the aPTT)", "setting": "human and animal plasma; hydrochloride", "value": 0.07, "unit": "µmol/L"}, {"measurement": "IC50", "setting": "human plasmin", "value": 5.9, "unit": "nM"}]}, {"smiles": "CC(C)c1nc2cc(C(F)(F)F)c(-c3ccc(C[C@H](NC(=O)[C@H]4CC[C@H](CN)CC4)C(=O)Nc4ccc5[nH]c(=O)[nH]c5c4)cc3)cc2[nH]1", "note": "[Example 31, N-alpha-{[trans-4-(Aminomethyl)cyclohexyl]carbonyl}-4-[2-isopropyl-5-(trifluoromethyl)-1H-benzimidazol-6-yl]-N-(2-oxo-2,3-dihydro-1H-benzimidazol-5-yl)-L-phenylalaninamide hydrochloride]", "values": [{"measurement": "IC50", "setting": "human factor XIa", "value": 3.1, "unit": "nM"}, {"measurement": "aPTT (concentration of test substance which brings about a 1.5-fold extension of the aPTT)", "setting": "human and animal plasma", "value": 0.07, "unit": "µmol/L"}, {"measurement": "IC50", "setting": "human plasmin", "value": 2.1, "unit": "nM"}]}, {"smiles": "CC(C)n1[nH]c2cc(-c3ccc(C[C@H](NC(=O)[C@H]4CC[C@H](CN)CC4)C(=O)Nc4ccc5cn[nH]c5c4)cc3)ccc2c1=O", "note": "[Example 32, N-alpha-{[trans-4-(Aminomethyl)cyclohexyl]carbonyl}-N-1H-indazol-6-yl-4-(2-isopropyl-3-oxo-2,3-dihydro-1H-indazol-6-yl)-L-phenylalaninamide hydrochloride]", "values": [{"measurement": "IC50", "setting": "human factor XIa", "value": 28, "unit": "nM"}, {"measurement": "aPTT (concentration of test substance which brings about a 1.5-fold extension of the aPTT)", "setting": "human and animal plasma", "value": 0.43, "unit": "µmol/L"}, {"measurement": "IC50", "setting": "human plasmin", "value": 8.7, "unit": "nM"}]}, {"smiles": "CC(C)n1[nH]c2cc(-c3ccc(C[C@H](NC(=O)[C@H]4CC[C@H](CN)CC4)C(=O)Nc4ccc5[nH]c(=O)[nH]c5c4)cc3)ccc2c1=O", "note": "[Example 33, N-alpha-{[trans-4-(Aminomethyl)cyclohexyl]carbonyl}-4-(2-isopropyl-3-oxo-2,3-dihydro-1H-indazol-6-yl)-N-(2-oxo-2,3-dihydro-1H-benzimidazol-5-yl)-L-phenylalaninamide hydrochloride]", "values": [{"measurement": "IC50", "setting": "human factor XIa", "value": 17, "unit": "nM"}, {"measurement": "aPTT (concentration of test substance which brings about a 1.5-fold extension of the aPTT)", "setting": "human and animal plasma", "value": 0.1, "unit": "µmol/L"}, {"measurement": "IC50", "setting": "human plasmin", "value": 5.9, "unit": "nM"}]}, {"smiles": "Cc1cc2c(=O)n(C(C)C)[nH]c2cc1-c1ccc(C[C@H](NC(=O)[C@H]2CC[C@H](CN)CC2)C(=O)Nc2ccc3[nH]c(=O)[nH]c3c2)cc1", "note": "[Example 34, N-alpha-{[trans-4-(Aminomethyl)cyclohexyl]carbonyl}-4-(2-isopropyl-5-methyl-3-oxo-2,3-dihydro-1H-indazol-6-yl)-N-(2-oxo-2,3-dihydro-1H-benzimidazol-5-yl)-L-phenylalaninamide hydrochloride]", "values": [{"measurement": "IC50", "setting": "human factor XIa", "value": 1.5, "unit": "nM"}, {"measurement": "aPTT (concentration of test substance which brings about a 1.5-fold extension of the aPTT)", "setting": "human and animal plasma", "value": 0.11, "unit": "µmol/L"}, {"measurement": "IC50", "setting": "human plasmin", "value": 1.7, "unit": "nM"}]}]}
